# Patent publication US20230233425A1, “USE OF VOLATILE COMPOSITIONS TO LIMIT OR ELIMINATE THE PERCEPTION OF MALODOR” (Firmenich SA, priority 2017, published 2023)
# Counter-ions that a name gives are not always drawn. Like-named read-outs stand apart in the source and are kept apart here.
# Tests used:
# [1] = target: T1, OR51E1 olfactory receptor (Homo sapiens, UniProt Q8TCB6); test: Butyric acid olfactory receptor antagonist cell-based dose-response vs butyric acid EC80; conditions: for Emax: read-out: Inhibition (%)
# T1 construct: expressed in transfected cells
# T1 sequence (Q8TCB6 1-318): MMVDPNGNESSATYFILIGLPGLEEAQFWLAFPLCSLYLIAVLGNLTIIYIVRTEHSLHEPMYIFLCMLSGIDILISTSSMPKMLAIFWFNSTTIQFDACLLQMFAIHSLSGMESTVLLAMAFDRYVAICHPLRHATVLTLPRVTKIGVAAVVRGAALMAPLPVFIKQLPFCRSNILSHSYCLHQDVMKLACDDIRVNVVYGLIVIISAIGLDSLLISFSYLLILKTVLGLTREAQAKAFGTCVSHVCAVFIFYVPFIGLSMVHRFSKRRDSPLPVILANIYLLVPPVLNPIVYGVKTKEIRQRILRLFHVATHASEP
# [2] = test system: geonol receptors Olfr339, Olfr1487, Olfr1A1, OR11A1, Olfr96; test: Antagonists of geonol receptors (Example 11); type: cell-based, mouse and human; design: Inhibition(%): concentration or dose not given beside the values; conditions: Table 18
Molecule,"IC50 ([1]; Table 20, spiro analogues) [µM]","Emax ([1]; Table 20, spiro analogues) [%]",further results
CC(=O)OC(C)C1CC(C)C23CCC(CC12)C3 (stereo not shown),–,–,IC50 ([1]; Table 21): 97 µM; Inhibition(%) ([1]; Table 21): 23%
CC(=O)OC(C)C1(C)CC(C)C23CCC(CC12)C3 (stereo not shown),–,–,IC50 ([1]; Table 21): 54.8 µM; Inhibition(%) ([1]; Table 21): 34%
CC(=O)C1(C)CC(C)C23CCC(CC12)C3 (stereo not shown),–,–,IC50 ([1]; Table 21): 60.5 µM; Inhibition(%) ([1]; Table 21): 26%
CC(=O)[C@@]1(C)C(C)[C@H](C)[C@@]23CC[C@H](CC12)C3 (stereo partly shown),–,–,Inhibition(%) ([1]; Table 21): 27%
CC1C(C)C23CCC(CC2C1(C)C=O)C3 (stereo not shown),–,–,IC50 ([1]; Table 21): 270 µM; Inhibition(%) ([1]; Table 21): 28%
CC1=CCC(C=CC(C)C(C)O)C1(C)C (stereo not shown),–,–,IC50 [2]: 76 µM; Inhibition(%) [2]: 33%
CC1=CCC2C(C1)C1CC2C2(C1)OC2C (stereo not shown),–,–,IC50 [2]: 281 µM; Inhibition(%) [2]: 45%
CC1(CO)CC1CC1CC2CC2(C)C1(C)C (stereo not shown),–,–,IC50 [2]: 21.3 µM; Inhibition(%) [2]: 34%
CC(=O)OCC1(C)C(C)C(C)C23CCC(CC12)C3 (stereo not shown),–,–,IC50 ([1]; Table 21): 60.8 µM; Inhibition(%) ([1]; Table 21): 27%
CCC1=CCCC(C)(C)[C@@]12C=C[C@@H](C)O2,–,–,IC50 [2]: 127 µM; Inhibition(%) [2]: 47%
C[C@H]1CCC[C@]2(CCCC[C@@H]2C)[C@@H]1O,76.9,54,–
CC1CCC2(O1)C(C)(C)CCCC2(C)O (stereo not shown),–,–,IC50 [2]: 173 µM; Inhibition(%) [2]: 40%
CC(=O)/C(C)=C/C1C(C)=CCCC1(C)C (stereo not shown),–,–,IC50 [2]: 1120 µM; Inhibition(%) [2]: 58%
CC(=O)OC1CC2CCC1(C)C2(C)C (stereo not shown),–,–,IC50 [2]: 660 µM; Inhibition(%) [2]: 84%
CC(=NO)C1(C)C(C)C(C)[C@]23CC[C@H](CC12)C3 (stereo partly shown),–,–,Inhibition(%) ([1]; Table 21): 81%
CC(=NO)C1C(C)C(C)C23CCC(CC12)C3 (stereo not shown),–,–,IC50 ([1]; Table 21): 76.6 µM; Emax ([1]; Table 21): 19%
CC1CC(C)(C=NO)C2C[C@H]3CC[C@]12C3 (stereo partly shown),–,–,Inhibition(%) ([1]; Table 21): 38%
"2,4,8-trimethylspiro[5.5]undec-3-en-11-ol; 2,9,11-trimethylspiro[5.5]undec-9-en-5-ol",117,–,"Inhibition(%) ([1]; Table 20, spiro analogues): 70%"
"3,10,10-trimethylspiro[5.5]undec-3-en-11-ol; 4,10,10-trimethylspiro[5.5]undec-3-en-11-ol",> 600,–,"Inhibition(%) ([1]; Table 20, spiro analogues): 121%"
"4,10,10,11-tetramethylspiro[5.5]undec-2-en-11-ol; 5,10,10,11-tetramethylspiro[5.5]undec-3-en-11-ol",47.2,–,"Inhibition(%) ([1]; Table 20, spiro analogues): 94%"
"CC(=O)OC(C1CCCCC1C)C(C)(C)C (racemic) [(1RS)-2,2-dimethyl-1-[(1SR,2SR)-2-methylcyclohexyl]propyl acetate]",–,–,"Inhibition(%) ([1]; Table 20, spiro analogues): 86%"

Molecule,"IC50 ([1]; Table 20, spiro analogues) [µM]","Emax ([1]; Table 20, spiro analogues) [%]",further results
"C=C1C(C)(C)CCCC12CC1(C)OC1(C)C2 (stereo not shown) [1,1′,1′,5-tetramethyl-2′-methylidenespiro[6-oxabicyclo[3.1.0]hexane-3,3′-cyclohexane]]",75.7,37,–
"CC=CC(=O)C1=C(C)C=CCC1(C)C [1-(2,6,6-trimethylcyclohexa-1,3-dien-1-yl)but-2-en-1-one]",–,–,IC50 [2]: 129 µM; Inhibition(%) [2]: 35%
"CC1C=CCC(C)C1C(O)C(C)(C)C (stereo not shown) [1-(2,6-dimethylcyclohex-3-en-1-yl)-2,2-dimethylpropan-1-ol]",321,31,–
"C=CCC1(OC)C(C)CCCC1C (stereo not shown) [1-methoxy-2,6-dimethyl-1-prop-2-enylcyclohexane]",100,61,–
"C=C1C2CCC(C2)C1(C)C (stereo not shown) [2,2-dimethyl-3-methylidenebicyclo[2.2.1]heptane]",–,–,IC50 [2]: 219 µM; Inhibition(%) [2]: 36%
"C=C(C)CC1(CC(=C)C)CCC(C)(C)C1O (stereo not shown) [2,2-dimethyl-5,5-bis(2-methylprop-2-enyl)cyclopentan-1-ol]",35.1,119,–
"C=C(C)CC1(CC(=C)C)CCC(C)(C)C1=O [2,2-dimethyl-5,5-bis(2-methylprop-2-enyl)cyclopentan-1-one]",51.7,82,–
"C=C(C)CC1(CC(=C)C)CCCC(C)(C)C1O (stereo not shown) [2,2-dimethyl-6,6-bis(2-methylprop-2-enyl)cyclohexan-1-ol]",125,110,–
"CC1=C(C)CC2(CCC(C)(C)C2=O)C1 [2,3,8,8-tetramethylspiro[4.4]non-2-en-9-one]",198,10,–
"CC1CC2(CCCC(C)(C)C2O)CC1C (stereo not shown) [2,3,9,9-tetramethylspiro[4.5]decan-10-ol]",120,12,–
"CC1=CC(C)C2(CCCC(C)(C)C2O)C1 (stereo not shown) [2,4,9,9-tetramethylspiro[4.5]dec-2-en-10-ol]",81.6,22,–
"CC1=CC(C)C2(CCCC(C)(C)C2=O)C1 (stereo not shown) [2,4,9,9-tetramethylspiro[4.5]dec-2-en-10-one]",110,63,–
CCCOC(C)OCCc1ccccc1 (stereo not shown) [2-(1-propoxyethoxy)ethylbenzene],–,–,IC50 [2]: 190 µM; Inhibition(%) [2]: 61%
CC(C)CCOCCc1ccccc1 [2-(3-methylbutoxy)ethylbenzene],–,–,IC50 [2]: 126 µM; Inhibition(%) [2]: 22%
"C=CCC1(C(C)C=C)CCCC(C)(C)C1=O (stereo not shown) [2-but-3-en-2-yl-6,6-dimethyl-2-prop-2-enylcyclohexan-1-one]",76.4,115,–
"CCC(=CCC1CC=C(C)C1(C)C)CO (stereo not shown) [2-ethyl-4-(2,2,3-trimethylcyclopent-3-en-1-yl)but-2-en-1-ol]",–,–,IC50 [2]: 173 µM; Inhibition(%) [2]: 35%
"CCC(=CCC1CC=C(C)C1(C)C)CO (stereo not shown) [2-ethyl-4-[1~{S})-2,2,3-trimethylcyclopent-3-en-1-yl]but-2-e]",–,–,IC50 [2]: 44.6 µM; Inhibition(%) [2]: 19%
CC(C)COC(=O)Cc1ccccc1 [2-methylpropyl 2-phenylacetate],–,–,IC50 [2]: 141 µM; Inhibition(%) [2]: 45%
"CC1C2CC(CC2C2CCCC(O)C2)C1(C)C (stereo not shown) [3-(5,5,6-trimethyl-2-bicyclo[2.2.1]heptanyl)cyclohexan-1-ol]",–,–,IC50 [2]: 100 µM; Inhibition(%) [2]: 29%
CC1=CCC2(CCCCC2O)C(C(C)C)C1 (stereo not shown) [3-methyl-5-propan-2-ylspiro[5.5]undec-2-en-11-ol],366,144,–
"CC1C=CCC12CCCC(C)(C)C2=O (stereo not shown) [4,9,9-trimethylspiro[4.5]dec-2-en-10-one]",268,102,–

Molecule,"IC50 ([1]; Table 20, spiro analogues) [µM]","Emax ([1]; Table 20, spiro analogues) [%]",further results
"COC1C(C)(C)CCC12CCCC2 (stereo not shown) [4-methoxy-3,3-dimethylspiro[4.4]nonane]",337,105,–
"CC1(C)CCCC2(CC=CC2)C1O (stereo not shown) [9,9-dimethylspiro[4.5]dec-2-en-10-ol]",44.1,91,–
"CC1(C)CCCC2(CC=CC2)C1=O [9,9-dimethylspiro[4.5]dec-2-en-10-one]",135,23,–
"COC1C(C)(C)CCC12CC=CC2 (stereo not shown) [9-methoxy-8,8-dimethylspiro[4.4]non-2-ene]",238,100,–
"COC1C(C)(C)CCCC12CC=CC2 (stereo not shown) [10-methoxy-9,9-dimethylspiro[4.5]dec-2-ene]",120,33,–
CC1CCCCC12CCCCC2O (stereo not shown) [11-methylspiro[5.5]undecan-5-ol],68.8,52,–
"CC(=O)OC1C(C)(C)CCCC12CC(C)(C)C(C)(C)C2 (stereo not shown) [(2,2,3,3,9,9-hexamethylspiro[4.5]decan-10-yl) acetate]",425,39,–
"CC1=C(C)CC2(CCCC(C)(C)C2OC=O)C1 (stereo not shown) [(2,3,9,9-tetramethylspiro[4.5]dec-2-en-10-yl) formate]",25.9,69,–
"CC(=O)OC1C(C)(C)CCCC12CC(C)=CC2C (stereo not shown) [(2,4,9,9-tetramethylspiro[4.5]dec-2-en-10-yl) acetate]",34.8,131,–
"C/C=C/C(=O)C1=C(C)CCCC1(C)C [(2E)-1-(2,6,6-trimethyl-1-cyclohexen-1-yl)-2-buten-1-one]",–,–,"IC50 ([1]; butyric acid at EC80, Table 5): 184 µM"
"CC(=O)OC1C(C)(C)CCCC12CC=C(C)CC2C (stereo not shown) [(3,5,10,10-tetramethylspiro[5.5]undec-2-en-11-yl) acetate]",71.4,104,–
"CC(=O)OC1C(C)(C)CCCC12CC=CC2C (stereo not shown) [(4,9,9-trimethylspiro[4.5]dec-2-en-10-yl) acetate]",48.5,106,–
"CC1CC=CCC12CCCC(C)(C)C2OC=O (stereo not shown) [(5,10,10-trimethylspiro[5.5]undec-2-en-11-yl) formate]",44.4,129,–
"CC(=O)OC1C(C)(C)CCC12CC=CC2 (stereo not shown) [(8,8-dimethylspiro[4.4]non-2-en-9-yl) acetate]",488,107,–
"CC(=O)OC1C(C)(C)CCCC12CC=CC2 (stereo not shown) [(9,9-dimethylspiro[4.5]dec-2-en-10-yl) acetate]",90.3,32,–
CCOCOC1CCCCCCCCCCC1 [(ethoxymethoxy)cyclododecane],–,–,"IC50 ([1]; butyric acid at EC80, Table 5): 69.2 µM"
C[C@@H]1CCCCCCCCCCCCC(=O)C1 [(−)-(3R)-3-methyl-1-cyclopentadecanone],–,–,"IC50 ([1]; butyric acid at EC80, Table 5): 27.3 µM"
COC1CCCCCCCCCCC1 [Methoxycyclododecane],–,–,"IC50 ([1]; butyric acid at EC80, Table 5): 84.1 µM"
"CC(=O)OC(C1C(C)C=C(C)CC1C)C(C)(C)C (stereo not shown) [[2,2-dimethyl-1-(2,4,6-trimethylcyclohex-3-en-1-yl)propyl] acetate]",52.6,89,–
"CC(=O)OC(C1C(C)CC(C)CC1C)C(C)(C)C (stereo not shown) [[2,2-dimethyl-1-(2,4,6-trimethylcyclohexyl)propyl] acetate]",242,101,–
"methyl 1-(3-methylbut-2-enyl)cyclohex-2-ene-1-carboxylate, methyl 1-(3-methylbut-2-enyl)cyclohex-3-ene-1-carboxylate, or mixtures thereof",577,–,"Inhibition(%) ([1]; Table 20, spiro analogues): 38%"
